Measurements from US20110172147A1, “NEUROPEPTIDE-2 RECEPTOR (Y-2R) AGONISTS” (priority 2009, published 2011).
*1 amine or outer side, *2 acyl side, *3 side chain or, on linkers, in order; H or OH if unused. Where a SMILES comes first, the peptide text is derived from it. [ ]: non-standard residue; d: D form. The star is where a group is joined. MeO(CH2CH2O)23CH2CH2CO = COCCOCCOCCOCCOCCOCCOCCOCCOCCOCCOCCOCCOCCOCCOCCOCCOCCOCCOCCOCCOCCOCCOCCOCCC(=O)*; X1 = O=C(Cn1cnc2ccc(N3CCN([*:1])CC3)cc2c1=O)[*:2]; Arachidoyl = CCCCCCCCCCCCCCCCCCCC(=O)*; NMeR = CN[C@@H](CCCNC(=N)N)C(=O)O; Cit = NC(=O)NCCC[C@H](N)C(=O)O; Guanidino = N=C(N)N*

Columns and labels:
Format in all cases: cell-based
[1] = target: T1, Y5R (Homo sapiens, UniProt Q15761); assay: CaFlux Assay (FLIPR), Y5R
T1 sequence (Q15761 1-445): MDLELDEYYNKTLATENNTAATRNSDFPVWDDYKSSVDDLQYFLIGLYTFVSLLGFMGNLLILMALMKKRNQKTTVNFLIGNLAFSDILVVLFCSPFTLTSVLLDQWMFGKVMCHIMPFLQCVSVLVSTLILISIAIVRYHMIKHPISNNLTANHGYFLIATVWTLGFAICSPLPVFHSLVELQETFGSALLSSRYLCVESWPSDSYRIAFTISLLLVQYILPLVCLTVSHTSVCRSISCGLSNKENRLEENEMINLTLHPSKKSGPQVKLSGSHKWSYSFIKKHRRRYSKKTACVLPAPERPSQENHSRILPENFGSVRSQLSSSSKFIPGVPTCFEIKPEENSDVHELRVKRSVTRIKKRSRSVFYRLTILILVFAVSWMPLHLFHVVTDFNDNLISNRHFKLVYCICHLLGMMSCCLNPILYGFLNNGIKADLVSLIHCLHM

[2] = target: Y4R (Homo sapiens, UniProt P50391); assay: CaFlux Assay (FLIPR), Y4R
Chain of Y4R (P50391 whole entry): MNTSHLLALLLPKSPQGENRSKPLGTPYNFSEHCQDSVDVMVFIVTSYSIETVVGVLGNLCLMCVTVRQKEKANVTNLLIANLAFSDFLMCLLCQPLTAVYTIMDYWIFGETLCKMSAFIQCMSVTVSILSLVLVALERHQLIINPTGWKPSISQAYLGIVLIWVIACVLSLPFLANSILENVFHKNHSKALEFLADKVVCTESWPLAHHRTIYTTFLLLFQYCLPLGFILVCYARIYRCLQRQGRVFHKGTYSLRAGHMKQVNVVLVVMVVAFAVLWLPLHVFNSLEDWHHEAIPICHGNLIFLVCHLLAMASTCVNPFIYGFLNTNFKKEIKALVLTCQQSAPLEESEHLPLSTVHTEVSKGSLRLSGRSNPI

[3] = target: T2, Y1R (Homo sapiens, UniProt P25929); assay: CaFlux Assay (FLIPR), Y1R
T2 sequence (P25929 1-384): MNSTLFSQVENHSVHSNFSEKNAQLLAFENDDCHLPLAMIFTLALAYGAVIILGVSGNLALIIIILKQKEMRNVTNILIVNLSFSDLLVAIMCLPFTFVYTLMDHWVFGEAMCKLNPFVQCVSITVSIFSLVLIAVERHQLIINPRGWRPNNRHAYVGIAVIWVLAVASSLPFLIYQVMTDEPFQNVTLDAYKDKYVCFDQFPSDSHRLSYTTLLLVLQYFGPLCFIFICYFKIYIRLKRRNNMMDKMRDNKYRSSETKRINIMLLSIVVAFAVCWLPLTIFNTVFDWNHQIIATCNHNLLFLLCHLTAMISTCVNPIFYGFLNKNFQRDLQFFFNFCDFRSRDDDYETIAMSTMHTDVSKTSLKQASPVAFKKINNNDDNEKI

[4] = target: T3, hNPY2R (Homo sapiens, UniProt P49146); assay: cAMP Agonist Assay, HEK293/hNPY2R; set-up: expressed in transfected cells; host or cells: HEK293/hNPY2R (G418 selection)
T3 sequence (P49146 1-381): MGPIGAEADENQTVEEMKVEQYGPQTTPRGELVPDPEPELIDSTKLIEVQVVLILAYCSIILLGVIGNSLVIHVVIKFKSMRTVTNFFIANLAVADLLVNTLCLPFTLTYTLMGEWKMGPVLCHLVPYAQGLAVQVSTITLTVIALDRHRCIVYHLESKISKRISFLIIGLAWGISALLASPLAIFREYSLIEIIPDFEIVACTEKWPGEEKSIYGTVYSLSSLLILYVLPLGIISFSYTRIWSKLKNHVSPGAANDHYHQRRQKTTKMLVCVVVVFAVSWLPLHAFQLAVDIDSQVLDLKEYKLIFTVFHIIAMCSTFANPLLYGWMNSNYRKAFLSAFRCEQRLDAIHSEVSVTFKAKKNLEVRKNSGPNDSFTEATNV
Summary of the method: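 Intracellular cAMP quantified by luminescent competitive ELISA after a 30 min room-temperature treatment of overnight-plated HEK293/hNPY2R cells with compound in medium containing 5 μM forskolin, 0.5 mM IBMX and 1.1% DMSO; four replicates per concentration.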

[5] = target: T3, hNPY2R; assay: CaFlux Assay (FLIPR), Y2R; set-up: expressed in transfected cells; host or cells: HEK-293 stably transfected with G protein chimera Gαqi9
Summary of the method: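 Gαqi9-chimera HEK-293 stable lines; Calcium-3 dye load 1 h, 37 °C (HBSS, 20 mM HEPES, 5 mM probenecid); compound in HBSS/0.05% BSA/1% DMSO; FLIPR read every 1.5 s for 100 s; peak minus pre-addition baseline, % of max positive-control response.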

Structure (SMILES)	EC50 [1]	EC50 [2]	EC50 [3]	EC50 [4]	EC50 [5]	Y5R FLIPR agonist character (partial agonist mark) ([1]; FLIPR)
CCCCCCCCCCCCCCCC(=O)NCCCCCC(=O)NCCCCCC(=O)N[C@@H](C(=O)N[C@@H](CCCCNC(=O)CCOCCOCCOCCOCCOCCOCCOCCOCCOCCOCCOCCOCCOCCOCCOCCOCCOCCOCCOCCOCCOCCOCCOCCOC)C(=O)N1CCN(c2ccc3ncn(CC(=O)N[C@@H](CCCNC(=N)N)C(=O)N[C@@H](Cc4c[nH]cn4)C(=O)N[C@@H](Cc4ccc(O)cc4)C(=O)N[C@@H](CC(C)C)C(=O)N[C@@H](CC(N)=O)C(=O)N[C@@H](Cc4c[nH]c5ccccc45)C(=O)N[C@H](C(=O)N[C@H](C(=O)N[C@@H](CCCNC(=N)N)C(=O)N[C@@H](CCC(N)=O)C(=O)N(C)[C@@H](CCCNC(=N)N)C(=O)N[C@@H](Cc4ccc(O)cc4)C(N)=O)[C@@H](C)O)C(C)C)c(=O)c3c2)CC1)[C@@H](C)CC [Example 43]	316 nM	> 6000 nM	> 6000 nM	0.1 nM	0.1 nM	–
CCCCCCCCCCCCCCCCCCCC(=O)N[C@@H](CCC(=O)O)C(=O)N[C@@H](CCC(=O)O)C(=O)N[C@H](C(=O)N[C@@H](CCCCNC(=O)CCOCCOCCOCCOCCOCCOCCOCCOC)C(=O)N1CCN(c2ccc3ncn(CC(=O)N[C@@H](CCCNC(N)=O)C(=O)N[C@@H](Cc4c[nH]cn4)C(=O)N[C@@H](Cc4ccc(O)cc4)C(=O)N[C@@H](CC(C)C)C(=O)N[C@@H](CC(N)=O)C(=O)N[C@@H](Cc4c[nH]c5ccccc45)C(=O)N[C@H](C(=O)N[C@H](C(=O)N[C@@H](CCCNC(=N)N)C(=O)N[C@@H](CCC(N)=O)C(=O)N(C)[C@@H](CCCNC(=N)N)C(=O)N[C@@H](Cc4ccc(O)cc4)C(N)=O)[C@@H](C)O)C(C)C)c(=O)c3c2)CC1)[C@@H](C)CC [Example 44]	> 6000 nM	> 6000 nM	> 6000 nM	0.43 nM	0.313 nM	–
CCCCCCCCCCCCCCCCCCCC(=O)N[C@@H](CCC(=O)O)C(=O)N[C@@H](CCC(=O)O)C(=O)N[C@H](C(=O)N[C@@H](CCCCNC(=O)CCOCCOCCOCCOCCOCCOCCOCCOCCOCCOCCOCCOC)C(=O)N1CCN(c2ccc3ncn(CC(=O)N[C@@H](CCCNC(N)=O)C(=O)N[C@@H](Cc4c[nH]cn4)C(=O)N[C@@H](Cc4ccc(O)cc4)C(=O)N[C@@H](CC(C)C)C(=O)N[C@@H](CC(N)=O)C(=O)N[C@@H](Cc4c[nH]c5ccccc45)C(=O)N[C@H](C(=O)N[C@H](C(=O)N[C@@H](CCCNC(=N)N)C(=O)N[C@@H](CCC(N)=O)C(=O)N(C)[C@@H](CCCNC(=N)N)C(=O)N[C@@H](Cc4ccc(O)cc4)C(N)=O)[C@@H](C)O)C(C)C)c(=O)c3c2)CC1)[C@@H](C)CC [Example 45]	> 6000 nM	> 6000 nM	> 6000 nM	0.3 nM	0.158 nM	–
CCCCCCCCCCCCCCCCCCCC(=O)N[C@@H](CCC(=O)O)C(=O)N[C@@H](CCC(=O)O)C(=O)N[C@H](C(=O)N[C@@H](CCCCNC(=O)CCOCCOCCOCCOCCOCCOCCOCCOCCOCCOCCOCCOC)C(=O)N1CCN(c2ccc3ncn(CC(=O)N[C@@H](CCCNC(=N)N)C(=O)N[C@@H](Cc4c[nH]cn4)C(=O)N[C@@H](Cc4ccc(O)cc4)C(=O)N[C@@H](CC(C)C)C(=O)N[C@@H](CC(N)=O)C(=O)N[C@@H](Cc4c[nH]c5ccccc45)C(=O)N[C@H](C(=O)N[C@H](C(=O)N[C@@H](CCCNC(=N)N)C(=O)N[C@@H](CCC(N)=O)C(=O)N(C)[C@@H](CCCNC(=N)N)C(=O)N[C@@H](Cc4ccc(O)cc4)C(N)=O)[C@@H](C)O)C(C)C)c(=O)c3c2)CC1)[C@@H](C)CC [Example 46]	4580 nM	> 9000 nM	> 9000 nM	0.29 nM	0.214 nM	–
CCCCCCCCCCCCCCCCCCCC(=O)N[C@@H](CCC(=O)O)C(=O)N[C@@H](CCC(=O)O)C(=O)N[C@H](C(=O)N[C@@H](CCCCNC(=O)CCOCCOCCOCCOCCOCCOCCOCCOCCOCCOCCOCCOCCOCCOCCOCCOC)C(=O)N1CCN(c2ccc3ncn(CC(=O)N[C@@H](CCCNC(N)=O)C(=O)N[C@@H](Cc4c[nH]cn4)C(=O)N[C@@H](Cc4ccc(O)cc4)C(=O)N[C@@H](CC(C)C)C(=O)N[C@@H](CC(N)=O)C(=O)N[C@@H](Cc4c[nH]c5ccccc45)C(=O)N[C@H](C(=O)N[C@H](C(=O)N[C@@H](CCCNC(=N)N)C(=O)N[C@@H](CCC(N)=O)C(=O)N(C)[C@@H](CCCNC(=N)N)C(=O)N[C@@H](Cc4ccc(O)cc4)C(N)=O)[C@@H](C)O)C(C)C)c(=O)c3c2)CC1)[C@@H](C)CC [Example 47]	> 6000 nM	> 6000 nM	> 6000 nM	0.23 nM	0.158 nM	–
CCCCCCCCCCCCCCCCCCCC(=O)N[C@@H](CCC(=O)O)C(=O)N[C@@H](CCC(=O)O)C(=O)N[C@H](C(=O)N[C@@H](CCCCNC(=O)CCOCCOCCOCCOCCOCCOCCOCCOCCOCCOCCOCCOCCOCCOCCOCCOC)C(=O)N1CCN(c2ccc3ncn(CC(=O)N[C@@H](CCCNC(=N)N)C(=O)N[C@@H](Cc4c[nH]cn4)C(=O)N[C@@H](Cc4ccc(O)cc4)C(=O)N[C@@H](CC(C)C)C(=O)N[C@@H](CC(N)=O)C(=O)N[C@@H](Cc4c[nH]c5ccccc45)C(=O)N[C@H](C(=O)N[C@H](C(=O)N[C@@H](CCCNC(=N)N)C(=O)N[C@@H](CCC(N)=O)C(=O)N(C)[C@@H](CCCNC(=N)N)C(=O)N[C@@H](Cc4ccc(O)cc4)C(N)=O)[C@@H](C)O)C(C)C)c(=O)c3c2)CC1)[C@@H](C)CC [Example 48]	4320 nM	> 9000 nM	> 9000 nM	0.52 nM	0.388 nM	–
CCCCCCCCCCCCCCCCCCCC(=O)N[C@@H](CCC(=O)O)C(=O)N[C@@H](CCC(=O)O)C(=O)N[C@H](C(=O)N[C@@H](CCCCNC(=O)CCOCCOCCOCCOCCOCCOCCOCCOCCOCCOCCOCCOCCOCCOCCOCCOCCOCCOCCOCCOCCOCCOCCOCCOC)C(=O)N1CCN(c2ccc3ncn(CC(=O)N[C@@H](CCCNC(N)=O)C(=O)N[C@@H](Cc4c[nH]cn4)C(=O)N[C@@H](Cc4ccc(O)cc4)C(=O)N[C@@H](CC(C)C)C(=O)N[C@@H](CC(N)=O)C(=O)N[C@@H](Cc4c[nH]c5ccccc45)C(=O)N[C@H](C(=O)N[C@H](C(=O)N[C@@H](CCCNC(=N)N)C(=O)N[C@@H](CCC(N)=O)C(=O)N(C)[C@@H](CCCNC(=N)N)C(=O)N[C@@H](Cc4ccc(O)cc4)C(N)=O)[C@@H](C)O)C(C)C)c(=O)c3c2)CC1)[C@@H](C)CC [Example 49]	518 nM	> 9000 nM	> 9000 nM	0.25 nM	0.098 nM	P.A
CCCCCCCCCCCCCCCCCCCC(=O)N[C@@H](CCC(=O)O)C(=O)N[C@@H](CCC(=O)O)C(=O)N[C@H](C(=O)N[C@@H](CCCCNC(=O)CCOCCOCCOCCOCCOCCOCCOCCOCCOCCOCCOCCOCCOCCOCCOCCOCCOCCOCCOCCOCCOCCOCCOCCOC)C(=O)N1CCN(c2ccc3ncn(CC(=O)N[C@@H](CCCNC(N)=O)C(=O)N[C@@H](Cc4c[nH]cn4)C(=O)N[C@@H](Cc4ccc(O)cc4)C(=O)N[C@@H](CC(C)C)C(=O)N[C@@H](CC(N)=O)C(=O)N[C@@H](Cc4c[nH]c5ccccc45)C(=O)N[C@H](C(=O)N[C@H](C(=O)N[C@@H](CCC(=O)NC(=N)N)C(=O)N[C@@H](CCC(N)=O)C(=O)N(C)[C@@H](CCCNC(=N)N)C(=O)N[C@@H](Cc4ccc(O)cc4)C(N)=O)[C@@H](C)O)C(C)C)c(=O)c3c2)CC1)[C@@H](C)CC [Example 51] (Arachidoyl-EEIK(MeO(CH2CH2O)23CH2CH2CO)[X1][Cit]HYLNWVTE(Guanidino)Q[NMeR]Y-NH2)	> 6000 nM	> 6000 nM	> 6000 nM	5.5 nM	9.4 nM	–
